Test results: ChEMBL document CHEMBL1151292, “Antineoplastic activity and cytotoxicity of flavones, isoflavones, and flavanones” (1979)
Converted amounts (≈) assume the structure as drawn. The source made the active and inactive calls. How the calls were made is not given here.

Columns and labels:
CCRF S-180 = assay: In vivo antitumor activity against mouse S180 cells; assay type: functional, organism-based
L1210 = assay: In vivo antitumor activity against mouse L1210 cells; assay type: functional, organism-based
KB = assay: Cytotoxicity against human KB cells; assay type: functional; conditions: read-out: ED50 (the source's name)
CA-755 = assay: In vivo antitumor activity against mouse CA-755 cells; assay type: functional, organism-based

Compound | Activity (L1210) | EC50 (KB) | other results
CS(=O)(=O)NC1C(=O)c2ccccc2OC1c1ccccc1 (stereo not given) | inactive | 10 µg/mL (≈ 31.5 µM) | Activity (CCRF S-180): inactive
Cc1ccc(-c2oc3ccccc3c(=O)c2O)cc1 | inactive | – | –
COc1cc(-c2cc(=O)c3c(O)cc(O)cc3o2)cc(OC)c1OC | inactive | – | –
COc1ccc2c(c1)OC(OC)(c1ccc(OC)c(OC)c1)C(O)(OC)C2=O (stereo not given) | inactive | – | –
COc1cc(-c2cc(=O)c3ccc(O)cc3o2)cc(OC)c1OC | inactive | – | –
Cc1c(O)cc2c(c1O)C(=O)CC(c1ccc(O)cc1)O2 (stereo not given) | inactive | 57 µg/mL (≈ 199 µM) | –
COc1ccc(-c2oc3cc(CC=C(C)C)cc(O)c3c(=O)c2OC)cc1OC | inactive | – | –
CS(=O)(=O)Oc1cccc(-c2cc(=O)c3ccccc3o2)c1 | – | > 100 µg/mL | –
COc1ccc2c(=O)c(O)c(-c3ccccc3)oc2c1 | – | 26 µg/mL (≈ 96.9 µM) | –
COc1ccc(-c2cc(=O)c3c(C)cc(O)cc3o2)cc1 | inactive | – | –
COc1cc(C2CC(=O)c3ccccc3O2)ccc1O (stereo not given) | inactive | – | Activity (CCRF S-180): inactive
O=c1cc(-c2ccc(O)cc2)oc2cc(O[C@@H]3O[C@H](CO)[C@@H](O)[C@H](O)[C@H]3O)cc(O)c12 [APIGETRIN] | – | > 100 µg/mL | Activity (CCRF S-180): inactive
COc1ccc(C2CC(=O)c3ccccc3O2)cc1OC (stereo not given) | inactive | – | Activity (CCRF S-180): inactive; Activity (CA-755): inactive
COc1ccc(-c2oc3cc(O)cc(O)c3c(=O)c2O)cc1 [KAEMPFERIDE] | – | 20 µg/mL (≈ 66.6 µM) | –
COc1ccc(-c2coc3cc(O)ccc3c2=O)cc1 | inactive | – | –
COc1ccc(-c2cc(=O)c3ccc(O)cc3o2)cc1 | inactive | – | –
COc1cc2c(=O)cc(-c3ccc(OC)c(OC)c3)oc2cc1O | – | 45 µg/mL (≈ 137 µM) | –
O=C1C[C@@H](c2ccc(O)cc2)Oc2cc(O)cc(O)c21 | inactive | – | Activity (CCRF S-180): inactive
COc1cc(O)c2c(c1)OC(c1ccc(O)cc1)CC2=O (stereo not given) | – | 13 µg/mL (≈ 45.4 µM) | –
COc1ccc(-c2cc(=O)c3c(O)cc(O)cc3o2)cc1OC | inactive | – | –
COc1ccc2c(=O)c(C)c(-c3ccccc3)oc2c1CN(C)C.Cl [DIMEFLINE HYDROCHLORIDE] | inactive | 22 µg/mL | –
C[C@@H]1O[C@@H](OC[C@H]2O[C@@H](Oc3c(-c4ccc(O)c(O)c4)oc4cc(O)cc(O)c4c3=O)[C@H](O)[C@@H](O)[C@@H]2O)[C@H](O)[C@H](O)[C@H]1O.Cl | – | > 100 µg/mL | –
COc1ccc2c(c1)OC(OC)(c1ccccc1)C(O)(O)C2=O (stereo not given) | – | 20 µg/mL (≈ 63.2 µM) | –

Compound | Activity (L1210) | EC50 (KB) | other results
COc1cc(OC)c2c(=O)c(OC)c(-c3ccc(OC)c(OC)c3)oc2c1 | – | 25 µg/mL (≈ 67.1 µM) | –
COc1cc(OC)c(-c2cc(=O)c3ccccc3o2)cc1Br | – | – | Activity (CCRF S-180): inactive; Activity (CA-755): inactive
CC(=O)Oc1cc(OC(C)=O)c2c(=O)c(OC(C)=O)c(-c3ccc(OC(C)=O)c(OC(C)=O)c3)oc2c1 | inactive | – | –
O=c1cc(-c2cccc(O)c2)oc2ccccc12 | inactive | 8.5 µg/mL (≈ 35.7 µM) | –
O=C1C(=O)C(c2ccccc2)Oc2ccccc21 (stereo not given) | inactive | – | –
O=c1c(Cl)c(-c2ccccc2)oc2ccc(Cl)cc12 | – | > 100 µg/mL | –
COc1cc(C2Oc3cc(OC)c(OC)c(O)c3C(=O)C2OC)ccc1O (stereo not given) | inactive | – | –
COc1ccc(C2(OC)Oc3cc(OC)ccc3C(=O)C2(O)O)cc1 (stereo not given) | – | 2.8 µg/mL (≈ 8.08 µM) | –
COc1cc(O)c2c(=O)cc(-c3ccc(OC)c(O)c3)oc2c1 | – | 19 µg/mL (≈ 60.5 µM) | –
Cc1ccc2oc(-c3ccccc3)c(Cl)c(=O)c2c1 | – | > 100 µg/mL | –
O=c1c(Cl)c(-c2ccccc2O)oc2ccccc12 | – | 22 µg/mL (≈ 80.7 µM) | –
CC(=O)c1c(O)cc(O)cc1-c1cc(=O)c2c(O)ccc(C(C)=O)c2o1 | inactive | – | –
C[C@@H]1O[C@@H](OC[C@H]2O[C@@H](Oc3c(-c4ccc(O)c(O)c4)oc4c(O)cc(O)cc4c3=O)[C@H](O)[C@@H](O)[C@@H]2O)[C@H](O)[C@H](O)[C@H]1O | inactive | – | –
COc1cc(OC)c(-c2cc(=O)c3c(O)cc(O)cc3o2)c(OC)c1 | inactive | – | –
COc1ccc(-c2coc3cc(O)cc(O)c3c2=O)cc1 | inactive | – | –
Cc1ccc(-c2oc3ccc(Cl)cc3c(=O)c2Cl)c(C(C)C)c1 | – | 22 µg/mL (≈ 63.4 µM) | –
COc1ccc(C2Oc3ccccc3C(=O)C2N)cc1.Cl (stereo not given) | – | > 100 µg/mL | Activity (CCRF S-180): inactive
COc1cc(-c2cc(=O)c3c(O)cc(C)cc3o2)cc(OC)c1OC | inactive | – | –
COc1cc(O)c2c(=O)c(OC)c(-c3ccc(O)c(OC)c3)oc2c1 | inactive | – | –
C[C@@H]1O[C@@H](OC[C@H]2O[C@@H](Oc3cc(O)c4c(c3)OC(c3ccc(O)cc3)CC4=O)[C@H](O)[C@@H](O)[C@@H]2O)[C@H](O)[C@H](O)[C@H]1O (stereo not given in full) | – | – | Activity (CCRF S-180): inactive
O/N=c1/cc(-c2ccccc2)oc2ccccc12 | inactive | – | Activity (CCRF S-180): inactive
CC(=O)Oc1ccc2c(=O)c(-c3ccccc3)c(C)oc2c1 | inactive | – | –
Cc1ccc(C(C)C)c(-c2oc3ccc(Cl)cc3c(=O)c2Cl)c1 | – | 60 µg/mL (≈ 173 µM) | –

Compound | Activity (L1210) | EC50 (KB) | other results
COc1ccc(-c2oc3cc(O)cc(O)c3c(=O)c2OC)cc1OC | inactive | – | –
O=c1c(O)c(-c2ccc(O)c(O)c2)oc2cc(O[C@@H]3O[C@H](CO)[C@@H](O)[C@H](O)[C@H]3O)cc(O)c12 [QUERCIMERITRIN] | – | 28 µg/mL (≈ 60.3 µM) | –
COC1(O)C(=O)c2ccccc2OC1(OC)c1ccc(Cl)cc1 (stereo not given) | inactive | – | –
O=c1c(O)c(-c2ccc(Cl)cc2)oc2cc(O)ccc12 | inactive | – | Activity (CCRF S-180): inactive
O=c1cc(-c2ccc(O)c(O)c2)oc2c([C@@H]3O[C@H](CO)[C@@H](O)[C@H](O)[C@H]3O)c(O)cc(O)c12 [ORIENTIN] | – | 25 µg/mL (≈ 55.8 µM) | –
COc1ccc(-c2cc(=O)c3c(C)cc(O)cc3o2)cc1OC | inactive | – | –
COc1ccc(-c2cc(=O)c3ccc(O)cc3o2)cc1OC | inactive | – | –
C[C@@H]1O[C@@H](OC[C@H]2O[C@@H](Oc3ccc4c(=O)c(-c5ccc6c(c5)OCO6)coc4c3)[C@H](O)[C@@H](O)[C@@H]2O)[C@H](O)[C@@H](O)[C@H]1O | inactive | – | –
COc1ccc(C2(OC)Oc3ccccc3C(=O)C2(O)OC)cc1OC (stereo not given) | inactive | – | –
COc1ccc(-c2cc(=O)c3cc(OC)c(OC)cc3o2)cc1O | – | 2 µg/mL (≈ 6.09 µM) | –
CS(=O)(=O)Nc1c(-c2ccccc2)oc2ccccc2c1=O | – | 10 µg/mL (≈ 31.7 µM) | Activity (CCRF S-180): inactive
COc1c(O)cc2oc(-c3ccc(O)cc3)cc(=O)c2c1O [HISPIDULIN] | – | 22 µg/mL (≈ 73.3 µM) | –
COc1ccc(-c2oc3ccccc3c(=O)c2O)cc1OC | inactive | – | –
COc1ccc2c(=O)c(O)c(-c3ccc(OC)c(OC)c3)oc2c1 | inactive | – | –
COc1c(-c2ccc(O)c(O)c2)oc2cc(O)cc(O)c2c1=O [3-O-METHYLQUERCETIN] | – | 17 µg/mL (≈ 53.8 µM) | –
COC1(c2ccccc2)Oc2ccccc2C(=O)C1(O)C[N+](=O)[O-] (stereo not given) | inactive | – | –
COc1cc(OC)c2c(=O)c(O)c(-c3ccc(OC)c(OC)c3)oc2c1 | inactive | – | –
COc1ccc(-c2oc3ccccc3c(=O)c2O)cc1 | inactive | – | –
O=c1c(O)c(-c2cc(O)c(O)c(O)c2)oc2cc(O)ccc12 [ROBINETIN] | – | 25 µg/mL (≈ 82.7 µM) | –
COc1cc2c(c(O[C@@H]3O[C@H](CO)[C@@H](O)[C@H](O)[C@H]3O)c1)C(=O)CC(c1ccc(O)cc1)O2 (stereo not given in full) | – | > 100 µg/mL | Activity (CCRF S-180): inactive
C[C@@H]1O[C@@H](OC[C@H]2O[C@@H](Oc3c(-c4ccc(O)c(O)c4)oc4cc(O)cc(O)c4c3=O)[C@H](O)[C@@H](O)[C@@H]2O)[C@H](O)[C@H](O)[C@H]1O [RUTIN] | – | 26 µg/mL (≈ 42.6 µM) | –
Cc1cc(C)c(-c2oc3ccc(Cl)cc3c(=O)c2Cl)c(C)c1 | – | > 100 µg/mL | Activity (CCRF S-180): Active
COC1(c2ccccc2)Oc2ccccc2C(=O)C1(O)O (stereo not given) | – | 19 µg/mL (≈ 66.4 µM) | –

Compound | Activity (L1210) | EC50 (KB) | other results
COc1ccc(-c2cc(=O)c3c(O)cc(C)cc3o2)cc1OC | inactive | – | –
Cc1c(-c2ccccc2)oc2c(C(=O)OCCN3CCCCC3)cccc2c1=O.Cl [FLAVOXATE HYDROCHLORIDE] | inactive | > 100 µg/mL | –
COc1cc2oc(-c3ccc(O)cc3)c(O[C@@H]3O[C@@H](C)[C@H](O)[C@@H](O)[C@H]3O)c(=O)c2c(O)c1OC | inactive | – | –
O=c1cc(-c2ccc3c(c2)OCO3)oc2ccccc12 | inactive | – | –
O=c1cc(-c2ccccc2)oc2c(O)c(O)cc(O)c12 | inactive | – | –
COc1c(OC)c(OC)c2c(=O)cc(-c3ccc(OC(C)C)cc3)oc2c1OC | – | > 100 µg/mL | –
COc1cc2c(=O)cc(-c3ccc(O)c(O)c3)oc2cc1O | – | 18 µg/mL (≈ 59.9 µM) | –
O=C1c2cc(Cl)ccc2OC(Cl)(c2ccc(Cl)cc2)C1Cl (stereo not given) | – | – | Activity (CCRF S-180): inactive
O=C1c2ccccc2OC(c2ccccc2)C1Cl (stereo not given) | – | – | Activity (CCRF S-180): inactive; Activity (CA-755): inactive
COc1cc(-c2cc(=O)c3ccc(O)c([C@@H]4O[C@H](CO)[C@@H](O)[C@H](O)[C@H]4O)c3o2)ccc1O | inactive | – | –
CCOc1ccc(-c2cc(=O)c3c(OC)c(OC)c(OC)c(OC)c3o2)cc1 | inactive | 30 µg/mL (≈ 77.6 µM) | Activity (CCRF S-180): inactive
COc1ccc(-c2cc(=O)c3c(O)cccc3o2)cc1 | inactive | – | –
COC1(O)C(=O)c2ccccc2OC1(OC)c1ccccc1 (stereo not given) | inactive | 34 µg/mL (≈ 113 µM) | –
O=c1cc(-c2ccccc2)oc2cc(F)ccc12 [7-FLUOROFLAVONE] | – | 22 µg/mL (≈ 91.6 µM) | –
O=c1cc(-c2ccccc2)oc2c(F)cc(F)cc12 | inactive | 15 µg/mL (≈ 58.1 µM) | Activity (CCRF S-180): inactive
COc1ccc(-c2oc3cc(O)c(O)c(O)c3c(=O)c2O)cc1OC | – | 27 µg/mL (≈ 78 µM) | –
O=c1c(-c2ccccc2)coc2ccccc12 | inactive | – | –
COc1cc(-c2cc(=O)c3c(C)cc(O)cc3o2)cc(OC)c1OC | inactive | – | –
O=c1c(O)c(-c2ccccc2)oc2cc(O)cc(O)c12 [GALANGIN] | – | > 100 µg/mL | –
C=CCOc1ccc(-c2cc(=O)c3c(OC)c(OC)c(OC)c(OC)c3o2)cc1 | – | 26 µg/mL (≈ 65.3 µM) | –
COc1cc(O)c(C2CC(=O)c3c(O)cc(O[C@@H]4O[C@H](CO[C@@H]5O[C@@H](C)[C@H](O)[C@@H](O)[C@H]5O)[C@@H](O)[C@H](O)[C@H]4O)cc3O2)cc1O (stereo not given in full) | inactive | > 100 µg/mL | –
